The test system of assay [1] is MdmX. Description: etoposide-induced MdmX degradation in MCF7 cells (Western blot). The note with it: etoposide 30 μg/ml, 16 hours. In kind it is cell-based, human. Here is the method: (§1) Cells were plated in 384-well format and treated with MG132 (2 hours) or cycloheximide (30 minutes). Steadylite luminescence buffer (PerkinElmer) was added and the relative luminescence levels determined on a Victor3 Plate Reader. Each graph represents the median of 5 replicates normalized to a no treatment control, and one standard deviation is shown. […] The graphs and EC50 values were determined using Graphpad PRISM®. […] U2OS, RKO, and HCT116 cells (p53 wild-type) were incubated with 5 μg/ml (14 μM) of MEL23, 5 μg/ml (15 μM) of MEL24, or 10 μM of MG132 for 6 hours. Cells were lysed and analyzed by Western blotting using anti-Mdm2, anti-p53, and anti-eIF4E antibodies. NT indicates a no treatment control. […] MCF7 cells (p53 wild-type) were incubated with 30 μg/ml (51 μM) etoposide alone or in combination with 50 μM AlIn or 5 μg/ml (14 μM) MEL23, or 5 μg/ml (15 μM) MEL24 for 16 hours. Cells were lysed and analyzed by Western blotting using anti-MDMX and anti-actin antibodies.
(§2) Cells were seeded and treated with the indicated compound(s). Cells were lysed after each time point in a buffer of 50 mM TrisHCl pH 7.5, 200 mM NaCl, 0.5% NP-40, and 1 complete mini EDTA-free protease inhibitor cocktail tablet per 10 mL of buffer (Roche, Cat. No. 8360170). Protein content was quantified using a Biorad protein assay reagent (Bio-Rad Laboratories, Hercules, Calif., Cat. No. 500-0006). SDS sample buffer was added to the samples, and the mixture was boiled for 5 minutes. Equal amounts of protein were resolved on a 1D SDS-PAGE gel. Following separation proteins were transferred to nitrocellulose membrane, blocked with 5% milk, and then incubated with primary antibody overnight at 4° C. The membrane was incubated with secondary-HRP antibody for 45 minutes at room temperature and developed with SuperSignal West Pico Substrate (Pierce, Rockford, Ill., Cat. No. 34080).

The subject of assay [2] is Mdm2 and p53 levels. Description: Western blot of Mdm2 and p53 protein levels in cell lines. In kind it is cell-based, human. The note with it: 6 hours; for p53 levels in RKO and RKO-E6 cells: isogenic RKO and RKO-E6 (HPV-E6) cells. Here is the method:
as §1
(§3) H1229 cells were transfected with Mdm2-Flag or remained untransfected. Cells were treated with 5 μg/ml (14 μM) MEL23, 5 μg/ml (15 μM) MEL24, 10 μM MG132, or 1 μg/ml of doxorubicin for 6 hours. Cells were lysed and analyzed by Western blotting using anti-Mdm2 and anti-actin antibodies. The lower band indicated with a star seen with the Mdm2 antibody is a non-specific band. NT indicates a no treatment control. […] RKO and RK0-E6 cells were treated with 5 μg/ml (14 μM) MEL23, 5 μg/ml (15 μM) MEL24, 10 μM MG132, 0.5 μg/ml doxorubicin, 0.5 μg/ml camptothecin or 25 μg/ml Etoposide for 6 hours. Cells were lysed and analyzed by Western blotting using anti-Mdm2, anti-p53, and anti-actin antibodies. The lower band indicated with a star seen with the anti-Mdm2 antibody is a non-specific band. […] RKO cells were treated with 5 μg/ml (14 μM) MEL23, 5 μg/ml (15 μM) MEL24, 10 μM MG132 or 2 μg/ml doxorubicin for 6 hours. Cells were lysed and analyzed by Western blotting using anti-Mdm2, anti-p53, anti-phospho-Ser15 p53, and anti-eiF4E antibodies.
as §2
Cells were lysed and analyzed by Western blotting using anti-Mdm2, anti-p53, and anti-actin antibodies. The lower band seen with the Mdm2 antibody is a non-specific band. NT indicates no treatment control.
Referring now to FIG. 28e, endogenous Mdm2 and p53 protein levels with MEL17 treatment are shown. Briefly, U2OS, RKO, and HCT116 cells (p53 wild-type) were incubated with 5 μg/ml of MEL17 or 10 μM of MG132 for 6 hours. Cells were lysed and analyzed by Western blotting using anti-Mdm2, anti-p53, and anti-actin antibodies. The lower band seen with the Mdm2 antibody is a non-specific band.
On the technique in general: Immunoblotting shows a protein as a band on a membrane.

In assay [3] the target is T1, Mdm2-luciferase fusion protein (Homo sapiens, UniProt Q00987).
T1 construct: Using full-length Mdm2 allowed for the presence of all domains of Mdm2; expressed in transfected cells
T1 sequence (Q00987 whole entry, the tested form may be a part): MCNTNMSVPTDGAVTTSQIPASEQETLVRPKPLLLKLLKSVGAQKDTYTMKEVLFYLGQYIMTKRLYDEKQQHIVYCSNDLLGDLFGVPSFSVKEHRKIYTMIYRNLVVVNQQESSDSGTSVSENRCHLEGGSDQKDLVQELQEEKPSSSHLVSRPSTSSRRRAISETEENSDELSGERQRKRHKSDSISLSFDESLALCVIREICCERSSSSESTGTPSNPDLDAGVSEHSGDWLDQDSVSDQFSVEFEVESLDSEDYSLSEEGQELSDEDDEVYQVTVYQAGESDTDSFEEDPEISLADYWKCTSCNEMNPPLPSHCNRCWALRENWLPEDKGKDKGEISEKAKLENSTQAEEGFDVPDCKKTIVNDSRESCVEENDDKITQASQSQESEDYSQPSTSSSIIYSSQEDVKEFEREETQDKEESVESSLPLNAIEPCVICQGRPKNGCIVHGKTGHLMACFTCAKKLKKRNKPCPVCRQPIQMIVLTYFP
Description: cell-based Mdm2 auto-ubiquitination luminescence assay, Mdm2-luciferase cell line. The note with it: 384-well format. Here is the method: as §1
The Mdm2-luciferase cell line was seeded at 7,500 cells per well, in 384-well white plates (PerkinElmer, Waltham, Mass., Cat. No. 6007688), in 27 μl of media (DMEM with FBS and P/S). Assay plates with cells were incubated at 37° C. overnight to allow cells to adhere. After 24 hours, 2 μl from the ‘mother’ plate (4 mg/ml) was transferred to a ‘daughter plate’ containing 148 μl media in order to dilute the compound 1:75. Next, 3 μl from each well of the ‘daughter plates’ was added to triplicate assay plates for a final concentration of 5.33 μg/ml. Assay plates were incubated at 37° C. for 2 hours. Then the cells were lysed with the addition of 30 μl of luminescence buffer (PerkinElmer, Cat. No. 6016989), and the plates were incubated at room temperature for 30 minutes before being analyzed on a Victor3 Plate Reader (PerkinElmer) for luminescence. […] All repurchased compounds were tested in a 2-fold dilution series via the same protocol as the primary screening. All transfers were conducted using a BioMek (Beckman Coulter, Fullerton, Calif.). […] This was determined by comparing the negative control, no treatment, to the positive control, 10 μM MG132.
To identify Mdm2 E3 ligase inhibitors, a high-throughput cellular assay to measure changes in Mdm2 auto-ubiquitination and degradation was designed. This assay took advantage of the fact that Mdm2 can regulate itself in cells through ubiquitination and degradation (8). Two fusion proteins were constructed for the assay: (a) a wild-type Mdm2-luciferase fusion protein, which can auto-ubiquitinate and thereby target itself for degradation; and (b) a mutant Mdm2(C464A)-luciferase fusion protein. Both fusion proteins were constructed with luciferase N-terminal to Mdm2. The C464A mutation disrupts a metal binding site in the RING domain, thereby preventing Mdm2 E3 ligase activity (8). Small molecules that increase the luminescence of the Mdm2-luciferase fusion protein without increasing the luminescence of the Mdm2(C464A)-luciferase fusion protein are likely inhibiting Mdm2 E3 ligase activity or the proteasomal degradation of Mdm2. Alternatively, small molecules that increase the luminescence of both fusion proteins are likely affecting transcription, translation, or have a general cellular impact that is not dependent on the E3 ligase activity of Mdm2 or proteasomal degradation.

Assay [4] relates to p53-Ser15 phosphorylation. In words: p53-Ser15 phosphorylation in RKO cells (Western blot). It is filed as cell-based, human. To be noted: 6 hours. Here is the method: as §3, §2
Assay [5] concerns p53 ubiquitination. Description: cell-based p53 ubiquitination assay in H1299 cells. Further details: species or system human. The note with it: H1299 transfected with p53, Mdm2, ubiquitin; 10 μg/ml pre-treatment, 10 μM MG132. Here is the method:
To obtain the results shown in FIG. 4A, Mdm2-luciferase cells were transfected with ubiquitin-HA and treated 8 hours later with 10 μg/ml (28 μM) MEL23, 10 μg/ml (31 μM) MEL24, or a DMSO control. After 16 hours, cells were additionally treated with 10 μM MG132 or a DMSO control. After 3 hours, cells were lysed and immunoprecipitated for 3 hours with anti-HA affinity matrix. Total lysates and immunoprecipitated samples were analyzed by Western blotting using anti-Mdm2 antibody. NT indicates a no treatment control. […] After 8 hours, cells were treated with 10 μg/ml (28 μM) MEL23, 10 μg/ml (31 μM) MEL24, or a DMSO control. After 16 hours, cells were additionally treated with 10 μM MG132 or a DMSO control. After 3 hours cells were lysed and analyzed by Western blotting using anti-p53 antibody. “p53-Ub” indicates the slower migrating species of the protein that are the ubiquitin-conjugated forms.
To test the effects of the MEL compounds on p53 ubiquitination, H1299 cells were transfected with plasmids expressing p53, Mdm2, and ubiquitin and pre-treated with 10 μg/ml MEL23 or MEL24, followed by treatment with 10 μM MG132. Ubiquitination of p53 was analyzed by Western blotting. […] In fact, the half-life of p53 increased from an hour to greater than 6 hours with 5 μg/ml MEL23 treatment (FIG. 32). Thus, treatment with MEL23 and MEL24 inhibits ubiquitin conjugation to Mdm2 and p53.

Molecules are shown by their SMILES. Where a name gives a salt, the structure may show the parent alone. Non-standard residues stand in square brackets, D forms with d. Residues, ends and D or L forms follow the SMILES beside them. *: point of attachment. Nle = CCCC[C@H](N)C(=O)O; Cbz = O=C(OCc1ccccc1)*

On to `COc1cc([C@@H]2c3cc4c(cc3[C@@H](O[C@@H]3O[C@@H]5CO[C@@H](C)O[C@H]5[C@H](O)[C@H]3O)[C@H]3COC(=O)[C@H]23)OCO4)cc(OC)c1O` [etoposide, reference compound], for which the “etoposide-induced MdmX degradation” value in assay [1] was “MdmX levels decreased substantially”. Besides, the “p53 levels in RKO and RKO-E6 cells” value in assay [2] is recorded as “increased p53 in both cell lines”.

On to `C[C@@H]1C[C@@H]([C@H](O)CC2CC(=O)NC(=O)C2)C(=O)[C@@H](C)C1` [cycloheximide, reference compound], for which the “luminescence of the Mdm2-luciferase cell line” value in assay [3] is “selectively decreased the luminescence of the Mdm2-luciferase protein”.

Regarding `COc1cccc2c1C(=O)c1c(O)c3c(c(O)c1C2=O)C[C@@](O)(C(=O)CO)C[C@@H]3O[C@H]1C[C@H](N)[C@H](O)[C@H](C)O1` [doxorubicin, doxorubicin hydrochloride, reference compound], the “p53 levels in RKO and RKO-E6 cells” value in assay [2] is given as “increased p53 in both cell lines”. Also, the “levels of endogenous and ectopically expressed Mdm2” value in assay [2] (p53-null H1299 cells) is listed as “no effect on Mdm2 levels”. Moreover, in assay [4], the “phosphorylation of p53 at serine-15” value is “strongly induced”.

For the compound `CCCC[C@@H](C=O)NC(=O)[C@H](CC(C)C)NC(=O)[C@H](CC(C)C)NC(C)=O` [ALLN, N-Acetyl-Leu-Leu-Nle-CHO, reference compound] (Ac-Leu-Leu-[Nle]-aldehyde), in assay [1], the “etoposide-induced MdmX degradation” value was “degradation could be prevented”.

`CC[C@@]1(O)C(=O)OCc2c1cc1n(c2=O)Cc2cc3ccccc3nc2-1` [camptothecin, reference compound]: the “p53 levels in RKO and RKO-E6 cells” value in assay [2] is recorded as “increased p53 in both cell lines”.

For `CC(C)C[C@@H](C=O)NC(=O)[C@H](CC(C)C)NC(=O)[C@H](CC(C)C)NC(=O)OCc1ccccc1` [MG132, Z-Leu-Leu-Leu-aldehyde, reference compound] (Cbz-Leu-Leu-Leu-aldehyde), the “p53 ubiquitination in cells” value in assay [5] is “significant increase in p53 ubiquitination”. In addition, in assay [2], the “p53 levels in RKO and RKO-E6 cells” value is on record as “increased p53 in both cell lines”. Further, the “luminescence of the Mdm2-luciferase cell line” value in assay [3] was “increased the levels of the Mdm2-luciferase protein”.

The values are drawn from patent publication US20120135089A1, “E3 LIGASE INHIBITORS” (priority 2009, published 2012).
